Experimental data: patent publication US20010012854A1, “MULTICATALYTIC PROTEASE INHIBITORS FOR USE AS ANTI-TUMOR AGENTS” (priority 1997, published 2001)
pIC50: −log10 of the molar value.

Key:
Assay type in all cases: cell-based
[1] = test system: Normal human fibroblast cell line (WI-38); experiment: Detachment, apoptotic nuclear changes and PARP cleavage in normal fibroblasts
Description: (§1) c. Treatment of cells with MCP inhibitor. Cells were treated with a specified MCP Inhibitor, a standard anticancer agent (etoposide or cisplatin), or DMSO (vehicle). During this process, morphological changes and cellular detachment (for attached cell lines) were monitored. At each time point, cells were harvested, and used for measurement of apoptosis and other biochemical events. In Example 1, infra, involving YVAD-CMK, Compound A was first added to Jurkat T cells. This was followed immediately by dividing the cells into multiple tissue culture flasks. YVAD-CMK was then added to an indicated concentration.
(§2) d. Flow cytometry nuclear staining and DNA fragmentation assays. DNA content analysis using flow cytometry was performed as described previously (Nicoletti, I., et al. J. Immunol. Methods 139:271-279, 1992). To assay nuclear morphology, cells were washed with PBS, fixed with 70% ethanol for 1 h, and stained with Hoechst 33258 (1 mM) for 30 min. The nuclear morphology of cells was visualized by fluorescence microscope (OLYMPUS BH2). DNA fragmentation was assayed as described previously (Grant, S., et al. Cancer Res. 52:6270-6278, 1992).
e. Whole cell extracts and western blot assay. To prepare whole cell extracts, cells were washed with PBS, and homogenized in lysis buffer (50 mM Tris, pH 8.0, 5 mM EDTA, 150 mM NaCl, 0.5% Nonidet P-40, 0.5 mM PMSF and 0.5 mM dithiothreitol). Following 30 min rocking at 4° C., the lysates were centrifuged and the supernatants were collected as whole cell extracts. The protein samples were then analyzed by sodium dodecyl sulfate-6% polyacrylamide gel electrophoresis (20-60 μg protein per lane) followed by the enhanced chemiluminescence Western blot assay using specific antibodies to CPP32, PARP, p21, p27 or RB.
Whether Compound A has, any selectivity in induction of apoptosis between transformed and normal cells was investigated. Normal human fibroblast cell line (WI-38) and its SV40-transformed derivative (WI-38 VA13) were utilized. […]

human Jurkat T cells = experiment: Apoptosis in Jurkat T cells (flow cytometry sub-G1 DNA content, DNA fragmentation); conditions: Jurkat T cells
Description: as §1, §2
Example 1 was designed to determine if MCP is involved in the survival signaling pathway(s) and if inhibition of MCP activity induces apoptosis. Human Jurkat T cells were treated with 30 μM Compound A for 4 h. […] Both the p112 and p115 forms of RB as p112-115/RB were combined and used as an apoptosis marker.
When human Jurkat T cells were treated with 15 μM Compound A for 8 h, there was a 23% increase in the apoptotic population with sub-G1 DNA content (FIG. 2, panels b vs. a). By comparison, when Compound B was used, only an 8%-increase in sub-G1 population was detected (FIG. 2, panels c vs. a).

[2] = test system: Jurkat Human T Cell Leukemia Line; experiment: Jurkat cell viability assay (XTT reduction); conditions: Jurkat cells, 24 hours, viability by XTT reduction, read-out: Toxicity (IC50)
Description: f. Cell viability assay. Jurkat cells were treated with MCP inhibitors or vehicle for 30 min. at 37° C. Next, ionomycin (1 μM) and the phorbol ester PMA (10 ng/ml) were added, together with 0.2% ethanol. After 24 h, cell viability was assessed by reduction of XTT (Sigma, X4251). To each well, 50 μl of XTT (1 mg/ml) and 25 μl PMS (Sigma 9625, 5 mM) were added. After 3 h at 37° C., the OD of each well was read at 450 nm/690 nm by a plate reader.
The rank-order potency for Jurkat cell killing precisely matched the order for MCP inhibition (Table 2, below).

CC(C)C[C@@H](C=O)NC(=O)[C@@H](CCCNC(=N)N[N+](=O)[O-])NC(=O)C(CCCCCCCCN1C(=O)c2ccccc2C1=O)C1CCCC1 (some centres unmarked) [Compound A]
Detachment and apoptotic nuclear changes ([1]; normal WI-38, 10 μM, up to 22 h): did not induce either detachment or apoptotic nuclear morphology | PARP cleavage ([1]; normal WI-38, total cell population): not in the normal | Increase in the apoptotic population with sub-G1 DNA content (human Jurkat T cells; 15 μM, 8 h): 23% | Induction of apoptosis (sub-G1 DNA content, nuclear condensation/fragmentation, internucleosomal DNA fragmentation) (human Jurkat T cells; 30 μM, 4 h): apoptosis occurred | pIC50 [2]: 6.30
